The nature of the data set: A: acetonitrile + 0.1% formic acid + 10 mM ammonium formate; B: 5% water + 95% acetonitrile + 0.1% formic acid + 10 mM ammonium formate; gradient (min/%B) 0/10 2/10 22/100 27/100 27.1/10. The conditions noted are these: stereoisomer not certain.

SMILES strings stand for the structures.

In the case of `COc1cc(C=CC(=O)O)cc(OC)c1O` [Sinapic acid], the LC retention time was found to be 0.561 min.

Turning to `Cn1cncc1C[C@H](N)C(=O)O` [3-Methyl-L-histidine], the LC retention time was determined as 7.74 min.

With `CCN(CC)c1ccc2c(-c3ccccc3C(=O)[O-])c3ccc(=[N+](CC)CC)cc-3oc2c1` [Rhodamine B], the LC retention time is 0.776 min.

In the case of `Nc1ccn(C2OC(COP(=O)(O)O)C(O)C2O)c(=O)n1` (stereo unspecified) [Cytidine 5'-monophosphate], the LC retention time turned out to be 7.4 min.

Take `Nc1ccc(O)cc1` [4-Aminophenol]: the LC retention time is 0.517 min.

Turning to `Cc1ccc(C(C)C)cc2c(C)ccc1-2` [Guaiazulene], the LC retention time stood at 0.402 min.

For `NC(CCC(=O)NC(CSSCC(NC(=O)CCC(N)C(=O)O)C(=O)NCC(=O)O)C(=O)NCC(=O)O)C(=O)O` [L-Glutathione oxidized], the LC retention time came out at 8.69 min.

As for `O=c1[nH]cnc2nc[nH]c12` [Hypoxanthine], the LC retention time was found to be 2.29 min.

Take `CC(NC(C)(C)C)C(=O)c1cccc(Cl)c1` (stereo unspecified) [Bupropion]: the LC retention time was determined as 0.963 min.

As for `CCCC[C@H](N)C(=O)O` [L-Norleucine], the LC retention time is 4.99 min.

`CCOC(=O)CC(=O)OCC` [Diethyl malonate]: the LC retention time was 0.43 min.

In the case of `NCC(O)c1ccccc1` (stereo unspecified) [2-Amino-1-phenylethanol], the LC retention time stood at 2.92 min.

Take `O=c1c(-c2ccc(O)cc2)coc2cc(O)ccc12` [Daidzein]: the LC retention time was 0.473 min.

For `CCOC(=O)C1=CC(OC(CC)CC)C(NC(C)=O)C(N)C1` (stereo unspecified) [Oseltamivir], the LC retention time is 2.47 min.

As for `Cc1c[nH]c2ccccc12` [3-Methylindole], the LC retention time came to 0.412 min.

For the compound `CCN(CC)CCNC(=O)c1ccc(N)cc1` [Procainamide], the LC retention time is 2.3 min.

For the compound `CN1C(=O)CCC1c1cccnc1` [(S)-Cotinine], the LC retention time is 0.622 min.

With `O=C(O)c1ccc(=O)[nH]c1` [6-Hydroxynicotinic acid], the LC retention time is 5.17 min.

Take `O=c1[nH]cnc2[nH]ncc12` [Allopurinol]: the LC retention time was determined as 0.996 min.

Take `COC(=O)c1cccnc1` [Methyl nicotinate]: the LC retention time was 0.625 min.

On to `COc1ccc2c(c1)C(=O)N(CCc1ccc(S(=O)(=O)NC(=O)NC3CCCCC3)cc1)C(=O)C2(C)C` [Gliquidone], for which the LC retention time turned out to be 0.417 min.

With `O=Cc1ccc(O)c(O)c1` [3,4-Dihydroxybenzaldehyde], the LC retention time turned out to be 0.571 min.

On to `NC(Cc1cccc(O)c1)C(=O)O` (racemic) [DL-m-Tyrosine], for which the LC retention time was 5.38 min.

For `CC(=O)NCCCNCCCCNCCCN` [N1-Acetylspermine], the LC retention time is 8.5 min.

On to `CCOC(=O)CC(C)=O` [Ethyl acetoacetate], for which the LC retention time worked out at 0.418 min.

As for `Nc1ccc(S(=O)(=O)c2ccc(N)cc2)cc1` [4,4'-Diaminodiphenyl sulfone], the LC retention time turned out to be 0.441 min.

As to `CN1C(C(=O)Nc2ccccn2)=C(O)c2ccccc2S1(=O)=O` [Piroxicam], the LC retention time was 0.44 min.

With `Cc1c[nH]c(=O)[nH]c1=O` [Thymine], the LC retention time came to 0.793 min.

Take `NC(N)=Nc1nc(CSCCC(N)=NS(N)(=O)=O)cs1` [Famotidine]: the LC retention time was 2.9 min.

For the compound `NC(=O)c1cccnc1` [Niacinamide], the LC retention time stood at 0.678 min.

Consider `Cn1cnc2[nH]c(=O)[nH]c(=O)c21` [7-Methylxanthine], for which the LC retention time turned out to be 1.37 min.

For `OCC(O)C(O)C(O)CO` (stereo unspecified) [Xylitol], the LC retention time turned out to be 5.38 min.

Turning to `CC(=O)CC(=O)CCC(=O)O` [4,6-Dioxoheptanoic acid], the LC retention time came to 0.575 min.

Consider `CNC(=C[N+](=O)[O-])NCCSCc1ccc(CN(C)C)o1` [Ranitidine], for which the LC retention time was 3.12 min.

In the case of `NCCCC(=O)O` [gamma-Aminobutyric acid], the LC retention time stood at 5.83 min.

On to `CC(=O)N1CCC[C@H]1C(=O)O` [N-Acetyl-L-Proline], for which the LC retention time is 4.98 min.

As to `CCCCCC(=O)NCC(=O)O` [Hexanoyl Glycine], the LC retention time came out at 1.27 min.

Turning to `O=C(O)CCCCCCCCCCCC(=O)O` [1,11-Undecanedicarboxylic acid], the LC retention time came to 0.554 min.

For the compound `Nc1ccc(C(=O)O)c(O)c1` [4-Aminosalicylic Acid], the LC retention time was found to be 0.675 min.

In the case of `Cc1cnc(=O)[nH]c1N` [5-Methylcytosine], the LC retention time is 3.15 min.

As for `O=C(O)CN(CCN(CC(=O)O)CC(=O)O)CC(=O)O` [Ethylenediaminetetraacetic acid], the LC retention time came to 6.91 min.

Regarding `NC(=O)c1ccc[n+](C2OC(COP(=O)(O)OP(=O)([O-])OCC3OC(n4cnc5c(N)ncnc54)C(OP(=O)(O)O)C3O)C(O)C2O)c1` (stereo unspecified) [NADP], the LC retention time was 8.7 min.

Consider `Nc1ccn(C2OC(CO)C(O)C2O)c(=O)n1` (stereo unspecified) [Cytidine], for which the LC retention time was 4.73 min.

Consider `Cc1cn(C2CC(O)C(CO)O2)c(=O)[nH]c1=O` (stereo unspecified) [Thymidine], for which the LC retention time was determined as 1.04 min.

Turning to `O=c1[nH]c(=O)n(C2CC(O)C(CO)O2)cc1I` (single isomer, unassigned; (+)) [(+)-5-Iodo-2'-deoxyuridine], the LC retention time came out at 0.729 min.

With `CCC(C)C(=O)NCC(=O)O` (stereo unspecified) [2-Methylbutyrylglycine], the LC retention time is 1.55 min.

With `O=C(O)C=Cc1cnc[nH]1` [Urocanic acid], the LC retention time came out at 1.89 min.

`CCOC(=O)N1CCC(=C2c3ccc(Cl)cc3CCc3cccnc32)CC1` [Loratadine]: the LC retention time turned out to be 0.433 min.

Take `O=C(O)CNC(=O)CCc1ccccc1` [N-(3-Phenylpropionyl)glycine]: the LC retention time was 1.25 min.

Regarding `O=c1c(O)c(-c2ccc(O)c(O)c2)oc2cc(O)cc(O)c12` [Quercetin], the LC retention time worked out at 0.592 min.

For the compound `C=C(C)C1CCC2=CC(=O)CC(C)C2(C)C1` (single isomer, unassigned; (+)) [(+)-Nootkatone], the LC retention time was found to be 0.417 min.

With `N[C@@H](Cc1cc(I)c(Oc2ccc(O)cc2)c(I)c1)C(=O)O` [3,5-Diiodo-L-Thyronine], the LC retention time is 3.63 min.

On to `C[N+](C)(C)CC(=O)[O-]` [Betaine], for which the LC retention time was 5.7 min.

On to `C=C(C)C1Cc2c(ccc3c2OC2COc4cc(OC)c(OC)cc4C2C3=O)O1` (stereo unspecified) [Rotenone], for which the LC retention time is 0.416 min.

On to `NC(=O)c1ccc[n+](C2OC(COP(=O)(O)OP(=O)([O-])OCC3OC(n4cnc5c(N)ncnc54)C(O)C3O)C(O)C2O)c1` (stereo unspecified) [NAD], for which the LC retention time amounted to 7.82 min.

As to `Nc1nc2nc[nH]c2c(=O)[nH]1` [Guanine], the LC retention time worked out at 3.98 min.

In the case of `COC(=O)C1=C(C)NC(C)=C(C(=O)OCCN(C)Cc2ccccc2)C1c1cccc([N+](=O)[O-])c1` (stereo unspecified) [Nicardipine], the LC retention time came to 0.714 min.

For `Nc1ccn(C2OC(COP(=O)(O)OP(=O)(O)OP(=O)(O)O)C(O)C2O)c(=O)n1` (stereo unspecified) [Cytidine 5'-triphosphate], the LC retention time came out at 10.1 min.

`COC(=O)Cc1ccc(C(C)(C)C)cc1` [Methyl p-tert-butylphenylacetate]: the LC retention time is 0.415 min.

Take `O=C/C=C/c1ccccc1` [trans-Cinnamaldehyde]: the LC retention time was found to be 0.43 min.

Turning to `Nc1ccc(C(=O)O)cc1` [p-Aminobenzoic acid], the LC retention time is 0.555 min.

On to `CCCC(=O)OCC(COC(=O)CCC)OC(=O)CCC` [Glycerol Tributyrate], for which the LC retention time was 0.412 min.

As to `O=C(O)Cc1c[nH]c2ccc(O)cc12` [5-Hydroxyindole-3-acetic acid], the LC retention time is 0.651 min.

In the case of `O=C(c1ccccc1)c1ccc2n1CCC2C(=O)O` (stereo unspecified) [Ketorolac], the LC retention time came to 0.567 min.

On to `CC12CCC(=O)C=C1CCC1C2C(O)CC2(C)C(C(=O)CO)CCC12` (stereo unspecified) [Corticosterone], for which the LC retention time is 0.472 min.

As for `CN(C)C(=N)N=C(N)N` [Metformin], the LC retention time is 3.67 min.

As for `NC(COP(=O)(O)O)C(=O)O` (stereo unspecified) [Phosphoserine], the LC retention time stood at 7.9 min.

Regarding `O=c1cc(-c2ccccc2)oc2ccccc12` [Flavone], the LC retention time came out at 0.425 min.

Regarding `CC(=O)NCCc1c[nH]c2ccc(O)cc12` [N-Acetyl-5-hydroxytryptamine], the LC retention time turned out to be 0.492 min.

In the case of `CC1OC(OC2C(CO)OC(OC3C(CO)OC(O)C(O)C3O)C(O)C2O)C(O)C(O)C1NC1C=C(CO)C(O)C(O)C1O` (stereo unspecified) [Acarbose], the LC retention time came out at 8.07 min.

In the case of `CC(=O)N[C@@H](Cc1ccccc1)C(=O)O` [N-Acetyl-L-phenylalanine], the LC retention time amounted to 1.32 min.

Turning to `Cc1cc2nc3c(=O)[nH]c(=O)nc-3n(CC(O)C(O)C(O)COP(=O)(O)OP(=O)(O)OCC3OC(n4cnc5c(N)ncnc54)C(O)C3O)c2cc1C` (stereo unspecified) [Flavin Adenine Dinucleotide], the LC retention time came to 7.38 min.

`NC12CC3CC(CC(C3)C1)C2` [1-Aminoadamantane]: the LC retention time worked out at 2.36 min.

Take `Cc1nc2n(c(=O)c1CCN1CCC(c3noc4cc(F)ccc34)CC1)CCCC2` [Risperidone]: the LC retention time turned out to be 2.42 min.

Regarding `CC12CCC(=O)C=C1C=CC1C2CCC2(C)C1CCC21CCC(=O)O1` (stereo unspecified) [Canrenone], the LC retention time is 0.429 min.

`CC12C=CC(=O)C=C1CCC1C2C(O)CC2(C)C1CCC2(O)C(=O)CO` (stereo unspecified) [Hydroretrocortine]: the LC retention time worked out at 0.485 min.

Regarding `O=C(O)C(O)Cc1c[nH]c2ccccc12` (racemic) [DL-Indole-3-lactic acid], the LC retention time came out at 0.968 min.

With `COC(=O)C1=CCCN(C)C1` [Arecoline], the LC retention time amounted to 2.06 min.

For `O=c1cc(-c2ccc(O)cc2)oc2cc(O)cc(O)c12` [Apigenin], the LC retention time amounted to 0.481 min.

As for `NCC(=O)CCC(=O)O` [5-Aminolevulinic acid], the LC retention time was 5.89 min.

Consider `CC(C)CC(=O)NCC(=O)O` [N-Iso valerylglycine], for which the LC retention time was found to be 1.63 min.

(Values after the RepoRT retention time repository.)
